Test results as given in ChEMBL document CHEMBL1157412, “Cytotoxic alkaloids and antibiotic nordammarane triterpenoids from the marine-derived fungus Aspergillus sydowi” (J Nat Prod, 2008).
In brackets after ≈: the same amount, converted by molar mass.

Legend:
A549 = assay: Cytotoxicity against human A549 cells after 72 hrs by MTT assay; assay type: functional, cell-based; details: A549, 72 h
Escherichia coli = assay: Antimicrobial activity against Escherichia coli after 24 hrs by disk diffusion method; assay type: functional
Bacillus subtilis = assay: Antimicrobial activity against Bacillus subtilis after 24 hrs by disk diffusion method; assay type: functional
Micrococcus luteus = assay: Antimicrobial activity against Micrococcus lysodeikticus after 24 hrs by disk diffusion method; assay type: functional
HL-60 = assay: Cytotoxicity against human HL60 cells after 72 hrs by MTT assay; assay type: functional, cell-based; details: HL-60, 72 h

| SMILES | IC50 (A549) [µM] | MIC (Escherichia coli) [µM] | MIC (Bacillus subtilis) [µM] | MIC (Micrococcus luteus) [µM] | IC50 (HL-60) [µM] |
| --- | --- | --- | --- | --- | --- |
| CC(C)=CCc1cccc2c(C[C@H]3C(=O)N[C@@H](C)C(=O)N3O)c[nH]c12 | 7.31 | – | – | – | – |
| CC(=O)O[C@H]1C[C@@]2(C)[C@@H](CC[C@H]3[C@@]4(C)C=CC(=O)[C@@H](C)[C@@H]4[C@H](OC(C)=O)C(=O)[C@@]32C)/C1=C(\CCCC(C)(C)O)C(=O)O | – | 10.7 (≈ 6.25 µg/mL) | 5.33 (≈ 3.13 µg/mL) | 10.7 (≈ 6.25 µg/mL) | – |
| C/C=C\[C@H](O)[C@H](O)C1=C(C)C(=O)[C@]2(O1)C(=O)N[C@@](OC)(C(=O)c1ccccc1)[C@@H]2O [14-NORPSEUROTIN A] | – | 3.74 (≈ 1.56 µg/mL) | 15 (≈ 6.25 µg/mL) | 7.49 (≈ 3.13 µg/mL) | – |
| COc1ccc2c(C[C@@H]3NC(=O)[C@@H]4CCCN4C3=O)c(C(=O)C=C(C)C)[nH]c2c1 [18-OXOTRYPROSTATIN A] | 1.28 | – | – | – | – |
| CC(=O)O[C@H]1C[C@@]2(C)[C@@H](CC[C@H]3[C@@]4(C)C=CC(=O)[C@@H](C)[C@@H]4[C@H](OC(C)=O)C(=O)[C@@]32C)/C1=C(\CCC=C(C)C)C(=O)O [HELVOLIC ACID] | – | 87.9 (≈ 50 µg/mL) | 22 (≈ 12.5 µg/mL) | 11 (≈ 6.25 µg/mL) | – |
| CC/C=C\[C@H](O)[C@H](O)C1=C(C)C(=O)[C@]2(O1)C(=O)N[C@@](OC)(C(=O)c1ccccc1)[C@@H]2O [PSEUROTIN A] | – | 14.5 (≈ 6.25 µg/mL) | 14.5 (≈ 6.25 µg/mL) | 7.42 (≈ 3.2 µg/mL) | – |
| COc1ccc2c(c1)NC(=O)[C@@]21C=C2C(=O)N3CCC[C@H]3C(=O)N2[C@H]1C=C(C)C [SPIROTRYPROSTATIN B] | 8.29 | – | – | – | 9.71 |
